Measured values from patent US12545640B2, “Substituted 6,7-dihydro-5H-benzo[7]annulene compounds, processes for their preparation and therapeutic uses thereof” (SANOFI, priority 2019, dated 2026).

Molecular target: T1, ERα (Homo sapiens, UniProt P03372)
T1 construct: host or cells: MCF7 cells
T1 sequence (P03372 1-595): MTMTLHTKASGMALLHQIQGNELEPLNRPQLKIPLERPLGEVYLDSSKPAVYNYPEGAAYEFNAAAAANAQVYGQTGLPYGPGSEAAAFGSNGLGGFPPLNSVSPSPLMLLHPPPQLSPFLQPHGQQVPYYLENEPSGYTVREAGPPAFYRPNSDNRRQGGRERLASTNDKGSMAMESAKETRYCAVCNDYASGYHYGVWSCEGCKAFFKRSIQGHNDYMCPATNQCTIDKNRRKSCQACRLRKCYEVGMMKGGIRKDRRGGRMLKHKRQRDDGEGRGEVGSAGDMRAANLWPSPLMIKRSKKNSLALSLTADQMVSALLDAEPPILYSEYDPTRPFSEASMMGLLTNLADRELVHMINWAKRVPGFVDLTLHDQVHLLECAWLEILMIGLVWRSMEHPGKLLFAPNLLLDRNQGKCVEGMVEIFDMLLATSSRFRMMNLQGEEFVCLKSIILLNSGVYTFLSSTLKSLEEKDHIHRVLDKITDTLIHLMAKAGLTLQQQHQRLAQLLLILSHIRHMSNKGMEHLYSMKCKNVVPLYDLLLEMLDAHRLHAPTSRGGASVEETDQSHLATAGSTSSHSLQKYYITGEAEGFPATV
Assay: Estrogen receptor degradation activity: breast cancer cell ERα in cell western assay (MCF7 cells)
Assay type: cell-based
Details: 4 hours, final concentrations ranging from 0.3-0.0000018 μM, relative to fulvestrant 0.1 μM positive control
How it was run: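 In-cell western: ERα immunostained (rabbit anti-ER, Alexa 488 secondary) and DNA stained with Syto-64 after 4 h compound exposure of MCF7 cells grown in charcoal-stripped serum medium. Final concentrations span 3–0.000018 μM or 0.3–0.0000018 μM (1:5 series); fulvestrant 0.1 μM serves as reference.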

## CC(C)(O)c1ccc(-c2ccc3c(c2)CCCC(c2cccc(F)c2Cl)=C3c2ccc(O[C@H]3CCN(CCCF)C3)cc2)cc1 [Example 98, (S)-2-(4-(8-(2-chloro-3-fluorophenyl)-9-(4-((1-(3-fluoropropyl)pyrrolidin-3-yl)oxy)phenyl)-6,7-dihydro-5H-benzo[7]annulen-3-yl)phenyl)propan-2-ol]
  % Degradation At 0.3 μM: 59%
